Measurements taken from patent US20100240758A1, “EXTERNAL PREPARATION FOR PERCUTANEOUS ADMINISTRATION CONTAINING NONSTEROIDAL ANTI-INFLAMMATORY ANALGESIC” (Hisamitsu Pharmaceutical Co., Inc., priority 2003, published 2010).

Assays:
Balb/c mouse [1] = experiment: In vivo phototoxicity test (auricular light irradiation, ear swelling due to ketoprofen); settings: UVA 40 J/cm^2, 24 hours after irradiation, toward KP group
Experimental: The experiment below was carried out by partially refining the method of Gerberick et al., (Food Chem. Toxicol., 27, 813-819 (1989)). That is, a Balb/c mouse (female, 9 to 11 weeks old) was used as a test animal, each of the test substances {4-tert-butyl-4′-methoxydibenzoylmethane (BM-DBM), 2-ethylhexyl dimethoxybenzylidenedioxoimidazolidine propionate (DB-DIH), terephthalylidene-3,3′-dicamphor-10,10′-disulfonic acid (TP-DCS), n-hexyl 2-(4-diethylamino-2-hydroxybenzoyl)benzoate (DHB-BH)} and 2% ketoprofen (KP) were dissolved in ethanol and applied to the auricle, and it was irradiated with UVA at 40 J/cm^2. 24 hours after UVA irradiation, the ear thickness was measured, and an increase from the ear thickness prior to the start of the test was calculated. The effect in suppressing phototoxicity due to KP was evaluated for each test substance using as an index the degree of suppression of the increase in ear thickness due to KP, that is, the ear swelling suppression rate (%) toward the KP group.

Balb/c mouse [2] = experiment: In vivo photoallergy test 1 (refined Murine Local Lymph Node Assay, 3H-TdR uptake); settings: UVA 20 J/cm^2, 3 days, toward KP group
Experimental: A KP photoallergy detection test was carried out by refining the Murine Local Lymph Node Assay (LLNA) proposed by the Interagency Coordinating Committee on the Validation of Alternative Methods (ICCVAM). That is, a Balb/c mouse (female, 8 to 12 weeks old) was used as a test animal, a solution of a test substance {4-tert-butyl-4′-methoxydibenzoylmethane (BM-DBM)} and 2% ketoprofen (KP) prepared in acetone—olive oil (4:1, v/v) was applied to the back of the pinna, and it was irradiated with UVA at 20 J/cm^2. This sensitization induction treatment was carried out for 3 days in succession. 5 days after starting the sensitization, 20 μCi per mouse of ^3H-methyl thymidine (^3H-TdR)/PBS solution was injected into the tail vein, and 5 hours later an auricular lymph node was removed. The removed lymph node was made into a single lymph cell suspension using a cell strainer, and after washing twice with PBS was then allowed to stand in a 5% trichloroacetic acid (TCA) solution at 4° C. overnight to thus make DNA precipitate. After the precipitate was suspended in 1 mL of 5% TCA solution, the radioactivity was measured using a liquid scintillation counter. The effect of the test substance in suppressing photoallergy due to KP was evaluated using as an index the degree of suppression of the increase in ^3H-TdR uptake by KP, that is, the ^3H-TdR uptake suppression rate (%) toward the KP group.

[3] = system: Hartley white female guinea pig; experiment: In vivo photoallergy test 2 (skin photoallergy test, Adjuvant and Strip Method); settings: 2% KP + 2% test substance, toward KP group
Experimental: A skin photoallergy test using a guinea pig was carried out by partially refining the Adjuvant and Strip Method of Sato et al., (The Nishinihon Journal of Dermatology, 42, 831-837 (1980)). That is, the back of the neck of a Hartley white female guinea pig (a group of 8 animals) was depilated, an adjuvant was administered to four corners of 2×2 cm, a 2% ethanol solution of ketoprofen (KP) or a solution of 2% KP+2% test substance {4-tert-butyl-4′-methoxydibenzoylmethane ([…])} was openly applied to the 2×2 cm area, and 1 hour later it was irradiated with UVA (10 J/cm^2). This sensitization induction treatment was carried out for 5 days in succession. 3 weeks after starting the sensitization, the back of the hip was depilated, the same solution as for the sensitization was openly applied to a 2×2 cm area, and 1 hour later it was irradiated with UVA (10 J/cm^2) to thus carry out a photoinduction. A skin reaction 24 and 48 hours after the irradiation was evaluated in accordance with the above-mentioned criteria of Sato et al. The effect of BM-DBM in suppressing photoallergy due to KP was evaluated by erythema and swelling suppression rates (%) toward the KP group.

[4] = test substance 0.5% with 2% KP in ethanol on auricle

With `COc1ccc(C(=O)CC(=O)c2ccc(C(C)(C)C)cc2)cc1` [BM-DBM, 4-tert-butyl-4′-methoxydibenzoylmethane] the “Ear Swelling Suppression Rate (%)” value (Balb/c mouse [1]; test substance 0.1% with 2% KP in ethanol on auricle) was 41%, the “Ear Swelling Suppression Rate (%)” value (Balb/c mouse [1]; test substance 0.3% with 2% KP in ethanol on auricle) was 81% and the “Ear Swelling Suppression Rate (%)” value (Balb/c mouse [1]; [4]) was 98%. The “^3H-TdR Uptake Suppression Rate (%)” value (Balb/c mouse [2]; BM-DBM 0.06% with 2% KP in acetone-olive oil) was 30%, the “^3H-TdR Uptake Suppression Rate (%)” value (Balb/c mouse [2]; BM-DBM 0.13% with 2% KP in acetone-olive oil) was 51% and the “^3H-TdR Uptake Suppression Rate (%)” value (Balb/c mouse [2]; BM-DBM 0.25% with 2% KP in acetone-olive oil) was 24%. The “^3H-TdR Uptake Suppression Rate (%)” value (Balb/c mouse [2]; BM-DBM 0.50% with 2% KP in acetone-olive oil) was 94%, the “^3H-TdR Uptake Suppression Rate (%)” value (Balb/c mouse [2]; BM-DBM 1.00% with 2% KP in acetone-olive oil) was 99% and the “Erythema/Swelling Suppression Rate (%) After 24 Hr” value ([3]; UVA 10 J/cm^2, 24 hours after photoinduction irradiation) was 69%. For the same compound, the “Erythema/Swelling Suppression Rate (%) After 48 Hr” value ([3]; UVA 10 J/cm^2, 48 hours after photoinduction irradiation) was 74%.

In the case of `CCCCC(CC)COC(=O)CCN1C(=O)NC(=Cc2ccc(OC)c(OC)c2)C1=O` (stereo not shown) [DB-DIH, 2-ethylhexyl dimethoxybenzylidenedioxoimidazolidine propionate], the “Ear Swelling Suppression Rate (%)” value (Balb/c mouse [1]; [4]) is reported as 34%.

In the case of `CCCCCCOC(=O)c1ccccc1C(=O)c1ccc(N(CC)CC)cc1O` [DHB-BH, n-hexyl 2-(4-diethylamino-2-hydroxybenzoyl)benzoate], the “Ear Swelling Suppression Rate (%)” value (Balb/c mouse [1]; [4]) is reported as 84%.

`CC1(C)C2CCC1(CS(=O)(=O)O)C(=O)/C2=C\c1ccc(/C=C2/C(=O)C3(CS(=O)(=O)O)CCC2C3(C)C)cc1` [TP-DCS, terephthalylidene-3,3′-dicamphor-10,10′-disulfonic acid] was tested, and the “Ear Swelling Suppression Rate (%)” value (Balb/c mouse [1]; [4]) was 65%.
